From patent publication US20250340538A1, “IMIDAZOLONE DERIVATIVES AS INHIBITORS OF PROTEIN KINASES IN PARTICULAR DYRK1A, CLK1 AND/OR CLK4” (PERHA PHARMACEUTICALS, priority 2021, published 2025)
Read-outs that look alike come from different tables or passages of the source.

Columns and labels:
[1] = target: T1, CLK1 (Homo sapiens, UniProt P49759); test: Radiometric protein kinase assay (33PanQinase Activity Assay), CLK1; format: biochemical; settings: read-out: Potency Class CLK1
T1 construct: GST-fusion or His-tag (not specified per kinase); purchased ProQinase GmbH; host or cells: Sf9 insect cells or E. coli (not specified per kinase)
T1 sequence (P49759 whole entry, the tested form may be a part): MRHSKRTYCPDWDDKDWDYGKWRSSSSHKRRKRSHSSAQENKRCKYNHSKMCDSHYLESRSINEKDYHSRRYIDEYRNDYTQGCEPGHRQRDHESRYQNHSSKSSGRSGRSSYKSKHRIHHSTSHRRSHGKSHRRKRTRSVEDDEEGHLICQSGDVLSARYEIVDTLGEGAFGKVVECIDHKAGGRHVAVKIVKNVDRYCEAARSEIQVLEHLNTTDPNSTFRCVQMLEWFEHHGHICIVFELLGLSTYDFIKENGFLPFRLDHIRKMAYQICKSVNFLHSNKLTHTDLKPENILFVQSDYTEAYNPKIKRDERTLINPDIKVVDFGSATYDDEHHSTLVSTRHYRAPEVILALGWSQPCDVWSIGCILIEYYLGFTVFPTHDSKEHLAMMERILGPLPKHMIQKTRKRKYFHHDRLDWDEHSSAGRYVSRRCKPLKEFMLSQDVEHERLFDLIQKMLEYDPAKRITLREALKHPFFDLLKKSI
Procedure: Assays were performed by ProQinase GmbH (Engesserstr. 4, D-79108 Freiburg, Germany. www.proqinase.com). The IC50 profile of all compounds was determined using 12 protein kinases (CDK2/cyclin E, CK1ε, CLK1, 2, 3, 4, DYRK1A, 1B, 2, 3, 4, GSK3β).
(§1) The compounds were provided as […] in 100% DMSO. Prior to testing, the 1 μM stock solutions were subjected to a serial, semi-logarithmic dilution using 100% DMSO as a solvent. […] In the process, 90 μl H2O were added to each well of each compound dilution plate. To minimize potential precipitation, the H2O was added to each plate only a few minutes before the transfer of the compound solutions into the assay plates. The plate was shaken thoroughly, resulting in a compound dilution plate/10% DMSO.
(§2) For the assays (see below), 5 μL solution from each well of the compound dilution plates/10% DMSO were transferred into the assay plates. The final volume of the assay was 50 μL. All compounds were tested at 10 final assay concentrations in the range from 10 μM to 30 nM. The final DMSO concentration in the reaction cocktails was 1% in all cases.
(§3) All protein kinases provided by ProQinase were expressed in Sf9 insect cells or in E. coli as recombinant GST-fusion proteins or His-tagged proteins, either as full-length or enzymatically active fragments. All kinases were produced from human cDNAs and purified by either GSH-affinity chromatography or immobilized metal. Affinity tags were removed from a number of kinases during purification. The purity of the protein kinases was examined by SDS-PAGE/Coomassie staining, the identity was checked by mass spectroscopy.
(§4) A radiometric protein kinase assay (33PanQinase® Activity Assay) was used for measuring the kinase activity of the 12 protein kinases. All kinase assays were performed in 96-well FlashPlates™ from PerkinElmer (Boston, MA, USA) in a 50 μL reaction volume. The reaction cocktail was pipetted in four steps in the following order: • 25 μL of assay buffer (standard buffer/[γ-^33P]-ATP), • 10 μL of ATP solution (in H2O), • 5 μL of test compound (in 10% DMSO), • 10 μL of enzyme/substrate mixture.
(§5) The reaction cocktails were incubated at 30° C. for 60 minutes. The reaction was stopped with 50 μL of 2% (v/v) H3PO4, plates were aspirated and washed two times with 200 μL 0.9% (w/v) NaCl. Incorporation of ^33Pi was determined with a microplate scintillation counter (Microbeta, Wallac). The IC50 values for all compounds were calculated from the dose response curves
As a parameter for assay quality, the Z′-factor (Zhang et al., J. Biomol. Screen. 2: 67-73, 1999) for the low and high controls of each assay plate (n=8) was used. ProQinase's criterion for repetition of an assay plate is a Z′-factor below 0.4 (Iversen et al., J. Biomol. Screen. 3: 247-252, 2006).

[2] = target: T2, DYRK1A (Homo sapiens, UniProt Q13627); test: Radiometric protein kinase assay (33PanQinase Activity Assay), DYRK1A; format: biochemical; settings: for Selectivity Class DYRK1A vs. CLK1: ratio of IC50 on CLK1 over IC50 on DYRK1A; for Selectivity Class DYRK1A vs. DYRK1B: ratio of IC50 on DYRK1B over IC50 on DYRK1A
T2 construct: GST-fusion or His-tag (not specified per kinase); purchased ProQinase GmbH; host or cells: Sf9 insect cells or E. coli (not specified per kinase)
Procedure: The IC50 profile of all compounds was determined using 12 protein kinases (CDK2/cyclin E, CK1ε, CLK1, 2, 3, 4, DYRK1A, 1B, 2, 3, 4, GSK3β).
as §1, §2, §3, §4, §5

[3] = class by IC50 on CLK1, from dose-response curves
[4] = class by IC50 on DYRK1A, from dose-response curves, read-out: Potency Class DYRK1A

SMILES | IC50 [1, 3] [nM] | IC50 [2, 4] [nM] | Selectivity Class DYRK1A vs. CLK1 [2] | Selectivity Class DYRK1A vs. DYRK1B [2] | IC50 ([2]; IC50 class A to E, read-out: Potency Class DYRK1A) [nM] | IC50 ([2]; read-out: IC50 on DYRK1A (most potent DYRK1A inhibitors)) [nM] | IC50 ([1]; IC50 class A to E) [nM]
O=C1NC(N[C@@H]2CCC[C@@H](O)CC2)=N/C1=C\c1ccc2nccnc2c1 (racemic) [Compound 6, (±)-(4Z)-2-[[trans-4-hydroxycycloheptyl]amino]-4-(quinoxalin-6-ylmethylene)-1H-imidazol-5-one] | > 50 |  |  |  |  |  | 
CO[C@@H]1CCC[C@@H](NC2=N/C(=C\c3ccc4nccnc4c3)C(=O)N2)CC1 (racemic) [Compound 7, (+)-(4Z)-2-[[trans-4-methoxycycloheptyl]amino]-4-(quinoxalin-6-ylmethylene)-1H-imidazol-5-one] | > 50 | > 50 | II (ratio between 2 and 10 fold) | II (ratio between 2 and 10 fold) |  |  | 
CO[C@H]1CCCC[C@@H](NC2=N/C(=C\c3ccc4nccnc4c3)C(=O)N2)C1 (racemic) [Compound 8, (+)-(4Z)-2-[[cis-3-methoxycycloheptyl]amino]-4-(quinoxalin-6-ylmethylene)-1H-imidazol-5-one] | > 50 |  |  |  |  |  | 
CC1(C)CCC(NC2=N/C(=C\c3ccc4nccnc4c3)C(=O)N2)CO1 (racemic) [Compound 36, (±)-(4Z)-2-[(6,6-dimethyltetrahydropyran-3-yl)amino]-4-(quinoxalin-6-ylmethylene)-1H-imidazol-5-one] | > 50 | > 50 | II (ratio between 2 and 10 fold) | II (ratio between 2 and 10 fold) |  |  | 
O=C1NC(NC2CCCCOC2)=N/C1=C\c1ccc2nccnc2c1 (racemic) [Compound 41, (4Z)-2-(Oxepan-3-ylamino)-4-(quinoxalin-6-ylmethylene)-1H-imidazol-5-one] | > 50 | > 50 | III (ratio between 0.5 and 2 fold) | II (ratio between 2 and 10 fold) |  |  | 
O=C1NC(NC2CCCCCC2)=N/C1=C\c1ccc2nccnc2c1 [Compound 1, (4Z)-2-(cycloheptylamino)-4-(quinoxalin-6-ylmethylene)-1H-imidazol-5-one] | > 50 |  |  |  |  |  | 
O=C1NC(NC2CCCCCCC2)=N/C1=C\c1ccc2nccnc2c1 [Compound 2, (4Z)-2-(cyclooctylamino)-4-(quinoxalin-6-ylmethylene)-1H-imidazol-5-one] | > 50 |  |  |  |  |  | 
O=C1NC(NCC2CCCCC2)=N/C1=C\c1ccc2nccnc2c1 [Compound 3, (4Z)-2-(cyclohexylmethylamino)-4-(quinoxalin-6-ylmethylene)-1H-imidazol-5-one] | > 50 | > 50 | III (ratio between 0.5 and 2 fold) | II (ratio between 2 and 10 fold) |  |  | 
CO[C@@H]1CCC[C@H]1NC1=N/C(=C\c2ccc3nccnc3c2)C(=O)N1 [Compound 4, (4Z)-2-[[(1R,2R)-2-methoxycyclopentyl]amino]-4-(quinoxalin-6-ylmethylene)-1H-imidazol-5-one] | > 50 | > 50 | II (ratio between 2 and 10 fold) | II (ratio between 2 and 10 fold) |  |  | 
CO[C@H]1CCC[C@@H]1NC1=N/C(=C\c2ccc3nccnc3c2)C(=O)N1 [Compound 5, (4Z)-2-[[(1S,2S)-2-Methoxycyclopentyl]amino]-4-(quinoxalin-6-ylmethylene)-1H-imidazol-5-one] | > 50 | > 50 | III (ratio between 0.5 and 2 fold) | II (ratio between 2 and 10 fold) |  |  | 
CC(C)C[C@H](CO)NC1=N/C(=C\c2ccc3nccnc3c2)C(=O)N1 [Compound 9, (4Z)-2-[[(1R)-1-(hydroxymethyl)-3-methyl-butyl]amino]-4-(quinoxalin-6-ylmethylene)-1H-imidazol-5-one] | 25 to 50 | 5 to 10 | II (ratio between 2 and 10 fold) | II (ratio between 2 and 10 fold) | 5 to 10 | ≤ 10 | 25 to 50
COC[C@@H](CC(C)C)NC1=N/C(=C\c2ccc3nccnc3c2)C(=O)N1 [Compound 10, (4Z)-2-[[(1R)-1-(methoxymethyl)-3-methyl-butyl]amino]-4-(quinoxalin-6-ylmethylene)-1H-imidazol-5-one] | > 50 |  |  |  |  |  | 
CCOC[C@@H](CC(C)C)NC1=N/C(=C\c2ccc3nccnc3c2)C(=O)N1 [Compound 11, (4Z)-2-[[(1R)-1-(ethoxymethyl)-3-methyl-butyl]amino]-4-(quinoxalin-6-ylmethylene)-1H-imidazol-5-one] | > 50 | 10 to 25 | I (ratio of IC50 on CLK1 or DYRK1B over IC50 on DYRK1A ≥10 fold (most DYRK1A-selective compounds)) | II (ratio between 2 and 10 fold) |  |  | 
CC(C)C[C@H](COCc1ccccc1)NC1=N/C(=C\c2ccc3nccnc3c2)C(=O)N1 [Compound 12, (4Z)-2-[[(1R)-1-(benzyloxymethyl)-3-methyl-butyl]amino]-4-(quinoxalin-6-ylmethylene)-1H-imidazol-5-one] | > 50 | > 50 | I (ratio of IC50 on CLK1 or DYRK1B over IC50 on DYRK1A ≥10 fold (most DYRK1A-selective compounds)) | II (ratio between 2 and 10 fold) |  |  | 
CC(C)C[C@H](COCc1ccc(F)cc1)NC1=N/C(=C\c2ccc3nccnc3c2)C(=O)N1 [Compound 13, (4Z)-2-[[(1R)-1-[(4-fluorophenyl)methoxymethyl]-3-methyl-butyl]amino]-4-(quinoxalin-6-ylmethylene)-1H-imidazol-5-one] | > 50 |  |  |  |  |  | 
CC(C)C[C@H](CF)NC1=N/C(=C\c2ccc3nccnc3c2)C(=O)N1 [Compound 14, (4Z)-2-[[(1R)-1-(fluoromethyl)-3-methyl-butyl]amino]-4-(quinoxalin-6-ylmethylene)-1H-imidazol-5-one] | > 50 | 10 to 25 | II (ratio between 2 and 10 fold) | II (ratio between 2 and 10 fold) |  |  | 
CC(C)C[C@@H](CF)NC1=N/C(=C\c2ccc3nccnc3c2)C(=O)N1 [Compound 15, (4Z)-2-[[(1S)-1-(Fluoromethyl)-3-methyl-butyl]amino]-4-(quinoxalin-6-ylmethylene)-1H-imidazol-5-one] | > 50 | > 50 | III (ratio between 0.5 and 2 fold) | III (ratio between 0.5 and 2 fold) |  |  | 
O=C1NC(NCc2ccccc2)=N/C1=C\c1ccc2nccnc2c1 [Compound 21] | > 50 | > 50 | III (ratio between 0.5 and 2 fold) | II (ratio between 2 and 10 fold) |  |  | 
O=C1NC(N[C@@H](CO)c2ccccc2)=N/C1=C\c1ccc2nccnc2c1 [Compound 24, (4Z)-2-[[(1R)-2-hydroxy-1-phenyl-ethyl]amino]-4-(quinoxalin-6-ylmethylene)-1H-imidazol-5-one] | 25 to 50 |  |  |  |  |  | 
O=C1NC(N[C@H](CO)c2ccccc2)=N/C1=C\c1ccc2nccnc2c1 [Compound 25, (4Z)-2-[[(1S)-2-Hydroxy-1-phenyl-ethyl]amino]-4-(quinoxalin-6-ylmethylene)-1H-imidazol-5-one] | > 50 |  |  |  |  |  | 
O=C1NC(NC2CCCCC2)=N/C1=C\c1ccc2nccnc2c1 [Compound 74, (4Z)-2-(Cyclohexylamino)-4-(quinoxalin-6-ylmethylene)-1H-imidazol-5-one] | > 50 |  |  |  |  |  | 
